Source: ChEMBL document CHEMBL1201862, “PubChem BioAssay data set” (2004)
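Each compound was tested at five concentrations against cells in 96-well plates for 48 hours. Here, GI50 denotes the concentration required for 50% inhibition of growth.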 Activity calls are given as the source filed them. No stated cut-off is given here; in the data, active = GI50 up to about 1.1 µM and inactive = higher.

Legend:
Assay in all cases: inhibition of tumour cell growth, NCI panel, 48 h
IGROV-1 = tested on: IGROV-1
NCI-H460 = tested on: NCI-H460
SK-MEL-28 = tested on: SK-MEL-28
SW-620 = tested on: SW-620
HCT-116 = tested on: HCT-116
MDA-MB-435 = tested on: MDA-MB-435
M14 = tested on: M14
OVCAR-3 = tested on: OVCAR-3
EKVX = tested on: EKVX
HCC 2998 = tested on: HCC 2998
PC-3 = tested on: PC-3
Hs-578T = tested on: Hs-578T
ACHN = tested on: ACHN
CAKI-1 = tested on: CAKI-1
UACC-257 = tested on: UACC-257
T47D = tested on: T47D
HOP-92 = tested on: HOP-92
SK-MEL-5 = tested on: SK-MEL-5
A549 = tested on: A549
SNB-75 = tested on: SNB-75

| SMILES | GI50 (IGROV-1) | GI50 (NCI-H460) | GI50 (SK-MEL-28) | GI50 (SW-620) | GI50 (HCT-116) | GI50 (MDA-MB-435) | GI50 (M14) | GI50 (OVCAR-3) | GI50 (EKVX) | GI50 (HCC 2998) | GI50 (PC-3) | GI50 (Hs-578T) | GI50 (ACHN) | GI50 (CAKI-1) | GI50 (UACC-257) | GI50 (T47D) | GI50 (HOP-92) | GI50 (SK-MEL-5) | GI50 (A549) | GI50 (SNB-75) |
| --- | --- | --- | --- | --- | --- | --- | --- | --- | --- | --- | --- | --- | --- | --- | --- | --- | --- | --- | --- | --- |
| CC1=NN(c2nc(N)nc(/C(C#N)=C\c3csc([N+](=O)[O-])c3)n2)C(C)(C)C1 | 49.3 µM (inactive) | 32.7 µM (inactive) | 59 µM (inactive) | 68.7 µM (inactive) | 47.4 µM (inactive) | 39.7 µM (inactive) | > 100 µM (inactive) | 26.4 µM (inactive) | 30.2 µM (inactive) | 31.7 µM (inactive) | 20.6 µM (inactive) | 22.5 µM (inactive) | 35 µM (inactive) | 44.5 µM (inactive) | 45.7 µM (inactive) | 23.7 µM (inactive) | 54.7 µM (inactive) | 30.5 µM (inactive) | – | – |
| Cc1nnc2sc(-c3ccc(-c4ccccc4Cl)o3)nn12 | 40.6 µM (inactive) | 35.1 µM (inactive) | – | 20.9 µM (inactive) | 19.8 µM (inactive) | 18.9 µM (inactive) | 32 µM (inactive) | 27 µM (inactive) | 33 µM (inactive) | 21.8 µM (inactive) | 37.2 µM (inactive) | 55.7 µM (inactive) | 48.4 µM (inactive) | 56 µM (inactive) | 44.5 µM (inactive) | 20.9 µM (inactive) | 40.2 µM (inactive) | 20.9 µM (inactive) | 34.8 µM (inactive) | – |
| Cc1ccc(I)cc1N=C=S | 28.8 µM (inactive) | 23.5 µM (inactive) | 20.2 µM (inactive) | 32.7 µM (inactive) | 29.8 µM (inactive) | 23.1 µM (inactive) | 20.2 µM (inactive) | 31 µM (inactive) | 23.7 µM (inactive) | – | 20.3 µM (inactive) | 29.9 µM (inactive) | 22.8 µM (inactive) | 24.9 µM (inactive) | 25 µM (inactive) | 16.1 µM (inactive) | 43.4 µM (inactive) | 16.5 µM (inactive) | 28.6 µM (inactive) | 21.2 µM (inactive) |
| C=CCCCCCCCCCOC1C=CC(OC(C)=O)C(COC(C)=O)O1 (stereo not drawn) | 27 µM (inactive) | 38.7 µM (inactive) | > 100 µM (inactive) | 57 µM (inactive) | 53.2 µM (inactive) | 50.8 µM (inactive) | 30.1 µM (inactive) | 44.4 µM (inactive) | 47.6 µM (inactive) | 39.8 µM (inactive) | 32 µM (inactive) | 28.9 µM (inactive) | 65.5 µM (inactive) | 80.5 µM (inactive) | 29 µM (inactive) | 77.3 µM (inactive) | 58.2 µM (inactive) | 31.6 µM (inactive) | 55.7 µM (inactive) | – |
| CC1CC(C)C(C#N)N(C)c2ccccc21 (stereo not drawn) | > 100 µM (inactive) | > 100 µM (inactive) | > 100 µM (inactive) | > 100 µM (inactive) | 36.5 µM (inactive) | 69.2 µM (inactive) | > 100 µM (inactive) | > 100 µM (inactive) | > 100 µM (inactive) | > 100 µM (inactive) | > 100 µM (inactive) | > 100 µM (inactive) | > 100 µM (inactive) | > 100 µM (inactive) | > 100 µM (inactive) | > 100 µM (inactive) | – | 37.7 µM (inactive) | > 100 µM (inactive) | > 100 µM (inactive) |
| C=C1C(=O)OC2CCN3CC=C(COC(=O)C(C)(O)C4(CO4)C1C)C23 (stereo not drawn) | > 100 µM (inactive) | > 100 µM (inactive) | > 100 µM (inactive) | > 100 µM (inactive) | > 100 µM (inactive) | > 100 µM (inactive) | > 100 µM (inactive) | – | > 100 µM (inactive) | > 100 µM (inactive) | > 100 µM (inactive) | > 100 µM (inactive) | > 100 µM (inactive) | > 100 µM (inactive) | > 100 µM (inactive) | > 100 µM (inactive) | > 100 µM (inactive) | > 100 µM (inactive) | > 100 µM (inactive) | – |
| O=[N+]([O-])c1ccc2c3c1[C@H]1O[C@H]1c1cccc(c1-3)[C@@H]1O[C@H]21 | – | – | 2.28 µM (inactive) | 0.951 µM (active) | 1.81 µM (inactive) | 1.85 µM (inactive) | 1.71 µM (inactive) | 2.63 µM (inactive) | 2.03 µM (inactive) | – | 2.3 µM (inactive) | 3.15 µM (inactive) | 2.22 µM (inactive) | 1.99 µM (inactive) | 1.82 µM (inactive) | 2.08 µM (inactive) | 2.18 µM (inactive) | 3.02 µM (inactive) | 3.2 µM (inactive) | 1.97 µM (inactive) |
| CCOC(=O)C(=O)/C(=C/NC(=S)c1ccncc1)C(=O)OCC | > 100 µM (inactive) | > 100 µM (inactive) | > 100 µM (inactive) | > 100 µM (inactive) | > 100 µM (inactive) | > 100 µM (inactive) | > 100 µM (inactive) | 0.0724 µM (active) | > 100 µM (inactive) | > 100 µM (inactive) | > 100 µM (inactive) | > 100 µM (inactive) | > 100 µM (inactive) | > 100 µM (inactive) | > 100 µM (inactive) | > 100 µM (inactive) | – | > 100 µM (inactive) | > 100 µM (inactive) | > 100 µM (inactive) |
| COc1ccccc1C(=O)NO | > 100 µM (inactive) | 62.7 µM (inactive) | > 100 µM (inactive) | > 100 µM (inactive) | > 100 µM (inactive) | > 100 µM (inactive) | > 100 µM (inactive) | > 100 µM (inactive) | > 100 µM (inactive) | > 100 µM (inactive) | > 100 µM (inactive) | > 100 µM (inactive) | > 100 µM (inactive) | > 100 µM (inactive) | > 100 µM (inactive) | > 100 µM (inactive) | – | > 100 µM (inactive) | > 100 µM (inactive) | > 100 µM (inactive) |
| O=C(O)c1c(-c2ccccc2)c(=O)[nH]c2ccccc12 | > 100 µM (inactive) | > 100 µM (inactive) | > 100 µM (inactive) | > 100 µM (inactive) | > 100 µM (inactive) | > 100 µM (inactive) | > 100 µM (inactive) | > 100 µM (inactive) | > 100 µM (inactive) | > 100 µM (inactive) | > 100 µM (inactive) | > 100 µM (inactive) | > 100 µM (inactive) | – | > 100 µM (inactive) | > 100 µM (inactive) | – | > 100 µM (inactive) | > 100 µM (inactive) | > 100 µM (inactive) |
| CC(=O)Oc1cc(S(=O)(=O)Nc2nc(N)n[nH]2)c(S)cc1Cl | > 100 µM (inactive) | > 100 µM (inactive) | > 100 µM (inactive) | > 100 µM (inactive) | > 100 µM (inactive) | > 100 µM (inactive) | > 100 µM (inactive) | > 100 µM (inactive) | > 100 µM (inactive) | > 100 µM (inactive) | > 100 µM (inactive) | > 100 µM (inactive) | > 100 µM (inactive) | > 100 µM (inactive) | > 100 µM (inactive) | > 100 µM (inactive) | > 100 µM (inactive) | > 100 µM (inactive) | > 100 µM (inactive) | – |
